{"source": "patent US20160220573A1", "about": "“COMBINATION THERAPIES FOR TREATING CANCERS” (Gilead Sciences, Inc., priority 2015, published 2016)", "test_system": "CLL cells", "assay": "Human CLL Apoptosis Assay", "format": "cell-based", "conditions": "without HS-5 co-culture", "experimental": "Peripheral blood mononuclear cells (PBMCs) were isolated from primary chronic lymphocytic leukemia (CLL) patients and cultured for 3-5 hours in Lymphocyte Growth Medium (LGM, RPMI 1640, 1 mM Sodium Pyruvate, 10 mM HEPES, pH 7.4, 100 U/mL Penicillin/100 μg/mL Streptomycin, 55 μM β-Mercaptoethanl, 2 mM GlutaMAX, and 10% FBS) at 37° C. with 5% CO2. Cells were then centrifuged at room temperature for 10 minutes and resuspended in an appropriate volume of LGM for plating (maximum cell density=3.12×10^6/ml). Final assay wells were set up in U-bottom 96-well tissue culture plates with HS-5 co-culture (plates were coated with 3×10^4 HS-5 cells in 100 μl overnight at 37° C. prior to the assay) or no co-culture.\nCell suspensions (80 μL, 2.5×10^5-9.4×10^4) were added to the plate and incubated for 1 hour prior to stimulation with αIgM/αIgG (7.8 μg/well) and αCD40 (4 μg/well). Cells were incubated with compounds for about 66 hours at 37° C. After incubation, the cells were transferred to deeper plates and washed once with 500 μL of 1×PBS^+/+. Cells were resuspended in Invitrogen's aqua Live/Dead reagent according to manufacturer's directions and incubated 30 minutes on ice. Aqua Live/Dead was quenched with an equal volume of PBS^+/+ with 4% FBS (FACS buffer). Cells were centrifuged and labeled with αCD5^−PE, αCD19-BV421 and AnnexinV-APC in a total volume of […] and incubated 30 minutes on ice. After labeling, cells were rinsed twice in FACS buffer and then fixed with BD Fixation buffer for 30 minutes on ice. Cells were rinsed twice with FACS buffer and analyzed.\nFor the apoptosis analysis, flow cytometric sampling of 5000-20,000 total events were collected on a BD FACS Canto II instrument using a high throughput screen (HTS) autosampler for analysis of apoptosis. CD5^+/CD19^+ cells were identified and subsequently gated for AnnexinV^+/LiveDead and AnnexinV^+/LiveDead^+ populations.\nFlow cytometric data were extracted to a flow cytometry standard (fcs) file. Average percentages of AnnexinV^+ cells were determined for the positive control and negative wells (no compound). The percentage of AnnexinV^+ cells represented the percentage or levels of apoptosis. Similar results were obtained for CLL cells with HS-5 co-culture."}
{"smiles": "c1cn2cc(-c3ccc4cn[nH]c4c3)nc(Nc3ccc(N4CCOCC4)cc3)c2n1", "note": "[Compound A1, 6-(1H-indazol-6-yl)-N-(4-morpholinophenyl)imidazo[1,2-a]pyrazin-8-amine]", "values": [{"measurement": "Percentage of the AnnexinV^+ cells from CLL patients", "setting": "Sample 1, 0 nM Compound B1, 30 nM Compound A1", "result": 12, "unit": "%"}, {"measurement": "Percentage of the AnnexinV^+ cells from CLL patients", "setting": "Sample 1, 0 nM Compound B1, 100 nM Compound A1", "result": 12, "unit": "%"}, {"measurement": "Percentage of the AnnexinV^+ cells from CLL patients", "setting": "Sample 1, 0 nM Compound B1, 300 nM Compound A1", "result": 16, "unit": "%"}, {"measurement": "Percentage of the AnnexinV^+ cells from CLL patients", "setting": "Sample 2, 0 nM Compound B1, 30 nM Compound A1", "result": 9, "unit": "%"}, {"measurement": "Percentage of the AnnexinV^+ cells from CLL patients", "setting": "Sample 2, 0 nM Compound B1, 100 nM Compound A1", "result": 12, "unit": "%"}, {"measurement": "Percentage of the AnnexinV^+ cells from CLL patients", "setting": "Sample 2, 0 nM Compound B1, 300 nM Compound A1", "result": 20, "unit": "%"}, {"measurement": "Percentage of the AnnexinV^+ cells from CLL patients", "setting": "Sample 3, 0 nM Compound B1, 30 nM Compound A1", "result": 13, "unit": "%"}, {"measurement": "Percentage of the AnnexinV^+ cells from CLL patients", "setting": "Sample 3, 0 nM Compound B1, 100 nM Compound A1", "result": 15, "unit": "%"}, {"measurement": "Percentage of the AnnexinV^+ cells from CLL patients", "setting": "Sample 3, 0 nM Compound B1, 300 nM Compound A1", "result": 18, "unit": "%"}]}
{"smiles": "CC1(C)CCC(CN2CCN(c3ccc(C(=O)NS(=O)(=O)c4ccc(NCC5CCOCC5)c([N+](=O)[O-])c4)c(Oc4cnc5[nH]ccc5c4)c3)CC2)=C(c2ccc(Cl)cc2)C1", "note": "[Compound B1]", "values": [{"measurement": "Percentage of the AnnexinV^+ cells from CLL patients", "setting": "Sample 1, 0.8 nM Compound B1, 0 nM Compound A1", "result": 13, "unit": "%"}, {"measurement": "Percentage of the AnnexinV^+ cells from CLL patients", "setting": "Sample 1, 1.6 nM Compound B1, 0 nM Compound A1", "result": 15, "unit": "%"}, {"measurement": "Percentage of the AnnexinV^+ cells from CLL patients", "setting": "Sample 1, 3.1 nM Compound B1, 0 nM Compound A1", "result": 15, "unit": "%"}, {"measurement": "Percentage of the AnnexinV^+ cells from CLL patients", "setting": "Sample 1, 6.3 nM Compound B1, 0 nM Compound A1", "result": 16, "unit": "%"}, {"measurement": "Percentage of the AnnexinV^+ cells from CLL patients", "setting": "Sample 1, 12.5 nM Compound B1, 0 nM Compound A1", "result": 19, "unit": "%"}, {"measurement": "Percentage of the AnnexinV^+ cells from CLL patients", "setting": "Sample 1, 25 nM Compound B1, 0 nM Compound A1", "result": 24, "unit": "%"}, {"measurement": "Percentage of the AnnexinV^+ cells from CLL patients", "setting": "Sample 1, 50 nM Compound B1, 0 nM Compound A1", "result": 31, "unit": "%"}, {"measurement": "Percentage of the AnnexinV^+ cells from CLL patients", "setting": "Sample 1, 100 nM Compound B1, 0 nM Compound A1", "result": 36, "unit": "%"}, {"measurement": "Percentage of the AnnexinV^+ cells from CLL patients", "setting": "Sample 1, 200 nM Compound B1, 0 nM Compound A1", "result": 46, "unit": "%"}, {"measurement": "Percentage of the AnnexinV^+ cells from CLL patients", "setting": "Sample 2, 0.8 nM Compound B1, 0 nM Compound A1", "result": 10, "unit": "%"}, {"measurement": "Percentage of the AnnexinV^+ cells from CLL patients", "setting": "Sample 2, 1.6 nM Compound B1, 0 nM Compound A1", "result": 18, "unit": "%"}, {"measurement": "Percentage of the AnnexinV^+ cells from CLL patients", "setting": "Sample 2, 3.1 nM Compound B1, 0 nM Compound A1", "result": 35, "unit": "%"}, {"measurement": "Percentage of the AnnexinV^+ cells from CLL patients", "setting": "Sample 2, 6.3 nM Compound B1, 0 nM Compound A1", "result": 55, "unit": "%"}, {"measurement": "Percentage of the AnnexinV^+ cells from CLL patients", "setting": "Sample 2, 12.5 nM Compound B1, 0 nM Compound A1", "result": 76, "unit": "%"}, {"measurement": "Percentage of the AnnexinV^+ cells from CLL patients", "setting": "Sample 2, 25 nM Compound B1, 0 nM Compound A1", "result": 89, "unit": "%"}, {"measurement": "Percentage of the AnnexinV^+ cells from CLL patients", "setting": "Sample 2, 50 nM Compound B1, 0 nM Compound A1", "result": 93, "unit": "%"}, {"measurement": "Percentage of the AnnexinV^+ cells from CLL patients", "setting": "Sample 2, 100 nM Compound B1, 0 nM Compound A1", "result": 95, "unit": "%"}, {"measurement": "Percentage of the AnnexinV^+ cells from CLL patients", "setting": "Sample 2, 200 nM Compound B1, 0 nM Compound A1", "result": 97, "unit": "%"}, {"measurement": "Percentage of the AnnexinV^+ cells from CLL patients", "setting": "Sample 3, 0.8 nM Compound B1, 0 nM Compound A1", "result": 16, "unit": "%"}, {"measurement": "Percentage of the AnnexinV^+ cells from CLL patients", "setting": "Sample 3, 1.6 nM Compound B1, 0 nM Compound A1", "result": 21, "unit": "%"}, {"measurement": "Percentage of the AnnexinV^+ cells from CLL patients", "setting": "Sample 3, 3.1 nM Compound B1, 0 nM Compound A1", "result": 33, "unit": "%"}, {"measurement": "Percentage of the AnnexinV^+ cells from CLL patients", "setting": "Sample 3, 6.3 nM Compound B1, 0 nM Compound A1", "result": 50, "unit": "%"}, {"measurement": "Percentage of the AnnexinV^+ cells from CLL patients", "setting": "Sample 3, 12.5 nM Compound B1, 0 nM Compound A1", "result": 69, "unit": "%"}, {"measurement": "Percentage of the AnnexinV^+ cells from CLL patients", "setting": "Sample 3, 25 nM Compound B1, 0 nM Compound A1", "result": 89, "unit": "%"}, {"measurement": "Percentage of the AnnexinV^+ cells from CLL patients", "setting": "Sample 3, 50 nM Compound B1, 0 nM Compound A1", "result": 97, "unit": "%"}, {"measurement": "Percentage of the AnnexinV^+ cells from CLL patients", "setting": "Sample 3, 100 nM Compound B1, 0 nM Compound A1", "result": 99, "unit": "%"}, {"measurement": "Percentage of the AnnexinV^+ cells from CLL patients", "setting": "Sample 3, 200 nM Compound B1, 0 nM Compound A1", "result": 100, "unit": "%"}]}
